Several values for one entry are separate records, joined by “and”; a condition that tells them apart may be missing. Identical values can stand only once. Inconclusive results and toxic doses are left out.
System: BDF1 mice, P388 leukemia ip, median survival T/C
Assay: NCI In Vivo Anticancer Drug Screen. Data for tumor model P388 Leukemia (intraperitoneal) in B6D2F1 (BDF1) mice
Conditions: endpoint: median survival time, higher = longer survival
In short: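 Vehicle-dosed animals serve as the reference; survival of compound-dosed, tumour-implanted mice is divided by it.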

[1] = dose: 25.0 mg/kg/injection, schedule: Q01DX009 (ip), vehicle: saline with Tween-80
[2] = dose: 50.0 mg/kg/injection, schedule: Q01DX009 (ip), vehicle: saline with Tween-80
[3] = dose: 400.0 mg/kg/injection, schedule: Q04DX003 (ip), vehicle: Klucel (hydroxypropylcellulose) (HPC)
[4] = dose: 100.0 mg/kg/injection, schedule: Q04DX003 (ip), vehicle: saline with Tween-80
[5] = dose: 200.0 mg/kg/injection, schedule: Q04DX003 (ip), vehicle: saline with Tween-80
[6] = dose: 400.0 mg/kg/injection, schedule: Q04DX003 (ip), vehicle: saline with Tween-80
[7] = dose: 50.0 mg/kg/injection, schedule: Q01DX009 (ip), vehicle: Klucel (hydroxypropylcellulose) (HPC)
[8] = dose: 100.0 mg/kg/injection, schedule: Q01DX009 (ip), vehicle: Klucel (hydroxypropylcellulose) (HPC)
[9] = dose: 100.0 mg/kg/injection, schedule: Q04DX003 (ip), vehicle: Klucel (hydroxypropylcellulose) (HPC)
[10] = dose: 200.0 mg/kg/injection, schedule: Q04DX003 (ip), vehicle: Klucel (hydroxypropylcellulose) (HPC)
[11] = dose: 6.25 mg/kg/injection, schedule: Q01DX009 (ip), vehicle: saline
[12] = dose: 25.0 mg/kg/injection, schedule: Q01DX009 (ip), vehicle: saline
[13] = dose: 100.0 mg/kg/injection, schedule: Q01DX009 (ip), vehicle: saline with Tween-80
[14] = dose: 200.0 mg/kg/injection, schedule: Q01DX009 (ip), vehicle: saline with Tween-80
[15] = dose: 100.0 mg/kg/injection, schedule: Q04DX003 (ip), vehicle: saline sonified
[16] = dose: 200.0 mg/kg/injection, schedule: Q04DX003 (ip), vehicle: saline sonified

## Cn1ncc2c(NCc3ccc(Cl)cc3)ncnc21
dose: 6.25 mg/kg/injection, schedule: Q01DX009 (ip), vehicle: saline with Tween-80
  T/C: 97 % of control
dose: 12.5 mg/kg/injection, schedule: Q01DX009 (ip), vehicle: saline with Tween-80
  T/C: 101 % of control
[1]
  T/C: 93 % of control
[2]
  T/C: 97 % of control

## Cc1ccc(-c2cc(-c3ccccc3)n(-c3ccccc3)n2)cc1
dose: 264.0 mg/kg/injection, schedule: Q04DX003 (ip), vehicle: Klucel (hydroxypropylcellulose) (HPC)
  T/C: 108 % of control and 109 % of control
[3]
  T/C: 104 % of control and 116 % of control

## COc1ccc2cc(OC)ccc2c1
dose: 100.0 mg/kg/injection, schedule: Q01DX001 (ip), vehicle: saline sonified
  T/C: 100 % of control
dose: 200.0 mg/kg/injection, schedule: Q01DX001 (ip), vehicle: saline sonified
  T/C: 100 % of control
dose: 400.0 mg/kg/injection, schedule: Q01DX001 (ip), vehicle: saline sonified
  T/C: 100 % of control

## OC(CBr)c1ccc(Cl)cc1 (configuration not stated)
[4]
  T/C: 100 % of control
[5]
  T/C: 95 % of control
[6]
  T/C: 95 % of control

## CC12CCC3C(CCC4=CC(=O)CCC43C)C1CCC(=O)O2 (configuration not stated)
dose: 12.5 mg/kg/injection, schedule: Q01DX009 (ip), vehicle: Klucel (hydroxypropylcellulose) (HPC)
  T/C: 95 % of control
dose: 25.0 mg/kg/injection, schedule: Q01DX009 (ip), vehicle: Klucel (hydroxypropylcellulose) (HPC)
  T/C: 95 % of control
[7]
  T/C: 104 % of control
[8]
  T/C: 95 % of control
[9]
  T/C: 109 % of control
[10]
  T/C: 90 % of control
[3]
  T/C: 90 % of control

## O=C(O)C1C(C(=O)O)C2(Cl)C(Cl)=C(Cl)C1(Cl)C2(Cl)Cl.[Cu+2] (configuration not stated)
dose: 12.5 mg/kg/injection, schedule: Q01DX009 (ip), vehicle: saline sonified
  T/C: 100 % of control
dose: 25.0 mg/kg/injection, schedule: Q01DX009 (ip), vehicle: saline sonified
  T/C: 110 % of control

## COc1cccc2c1C13CC(C)CC(C2)C1CCC(=O)N3 (configuration not stated)
dose: 75.0 mg/kg/injection, schedule: Q04DX003 (ip), vehicle: saline
  T/C: 100 % of control
dose: 150.0 mg/kg/injection, schedule: Q04DX003 (ip), vehicle: saline
  T/C: 105 % of control
dose: 300.0 mg/kg/injection, schedule: Q04DX003 (ip), vehicle: saline
  T/C: 116 % of control

## Nc1ccc(-c2ccc(N)cc2Br)c(Br)c1
[4]
  T/C: 100 % of control
[5]
  T/C: 95 % of control
[6]
  T/C: 104 % of control

## CCOC(=O)CCC(C)(C#N)c1ccccc1 (configuration not stated)
[2]
  T/C: 100 % of control
[4]
  T/C: 95 % of control
[5]
  T/C: 91 % of control
[6]
  T/C: 100 % of control

## CN(C)C(c1ccccc1)C(CBr)C(=O)c1ccc(Br)cc1 (configuration not stated)
[11]
  T/C: 110 % of control
dose: 16.5 mg/kg/injection, schedule: Q01DX009 (ip), vehicle: saline
  T/C: 109 % of control and 116 % of control
[12]
  T/C: 100 % of control and 118 % of control
dose: 27.5 mg/kg/injection, schedule: Q04DX003 (ip), vehicle: saline
  T/C: 104 % of control
dose: 37.5 mg/kg/injection, schedule: Q01DX009 (ip), vehicle: saline
  T/C: 113 % of control and 120 % of control
dose: 55.0 mg/kg/injection, schedule: Q04DX003 (ip), vehicle: saline
  T/C: 100 % of control

## O=C1CCCCc2ccc(O)cc21
[13]
  T/C: 99 % of control
[14]
  T/C: 89 % of control
dose: 400.0 mg/kg/injection, schedule: Q01DX009 (ip), vehicle: saline with Tween-80
  T/C: 93 % of control

## N#CC1CCCCC1C1(C#N)CCCCC1Cc1ccccn1 (configuration not stated)
dose: 100.0 mg/kg/injection, schedule: Q04DX002 (ip), vehicle: saline with Tween-80
  T/C: 98 % of control
dose: 200.0 mg/kg/injection, schedule: Q04DX002 (ip), vehicle: saline with Tween-80
  T/C: 107 % of control
dose: 400.0 mg/kg/injection, schedule: Q04DX002 (ip), vehicle: saline with Tween-80
  T/C: 92 % of control

## CCC(CC)N(C)C(C)(C)CO
[1]
  T/C: 100 % of control
[2]
  T/C: 91 % of control
dose: 50.0 mg/kg/injection, schedule: Q04DX003 (ip), vehicle: saline sonified
  T/C: 104 % of control
[13]
  T/C: 108 % of control
[15]
  T/C: 104 % of control
[16]
  T/C: 113 % of control

## Oc1ccccc1C1N=NC2=C(CCCC2)N1O (configuration not stated)
[7]
  T/C: 99 % of control
[8]
  T/C: 93 % of control

## O=c1cn[nH]c(=O)[nH]1
dose: 62.5 mg/kg/injection, schedule: Q01DX010 (ip), vehicle: saline
  T/C: 100 % of control
dose: 125.0 mg/kg/injection, schedule: Q01DX010 (ip), vehicle: saline
  T/C: 100 % of control
dose: 250.0 mg/kg/injection, schedule: Q01DX010 (ip), vehicle: saline
  T/C: 100 % of control
dose: 500.0 mg/kg/injection, schedule: Q01DX010 (ip), vehicle: saline
  T/C: 95 % of control

## O=[N+]([O-])c1ccc(-c2ncc3cnccn23)cc1
dose: 100.0 mg/kg/injection, schedule: Q04DX003 (ip), vehicle: saline
  T/C: 111 % of control
dose: 200.0 mg/kg/injection, schedule: Q04DX003 (ip), vehicle: saline
  T/C: 97 % of control
dose: 400.0 mg/kg/injection, schedule: Q04DX003 (ip), vehicle: saline
  T/C: 102 % of control

## [N-]=[N+]=CC(=O)NCC(=O)NN
dose: 50.0 mg/kg/injection, schedule: Q01DX010 (ip), vehicle: water
  T/C: 120 % of control
dose: 200.0 mg/kg/injection, schedule: Q01DX010 (ip), vehicle: water
  T/C: 166 % of control and 175 % of control
dose: 400.0 mg/kg/injection, schedule: Q01DX010 (ip), vehicle: saline
  T/C: 181 % of control

## CC(=O)O[C@H]1[C@H]2O[C@]23[C@@H]2CC[C@@H]4C[C@@H](O)CC[C@]4(C)[C@H]2CC[C@]3(C)[C@H]1c1ccc(=O)oc1
dose: 3.75 mg/kg/injection, schedule: Q01DX009 (ip), vehicle: Klucel (hydroxypropylcellulose) (HPC)
  T/C: 100 % of control
dose: 7.5 mg/kg/injection, schedule: Q01DX009 (ip), vehicle: Klucel (hydroxypropylcellulose) (HPC)
  T/C: 104 % of control
dose: 10.0 mg/kg/injection, schedule: Q01DX010 (ip), vehicle: carboxymethylcellulose (CMC)
  T/C: 90 % of control
dose: 20.0 mg/kg/injection, schedule: Q01DX010 (ip), vehicle: carboxymethylcellulose (CMC)
  T/C: 90 % of control

## OC12C3CCCC1CCCC2CCC3 (configuration not stated)
[9]
  T/C: 100 % of control and 108 % of control
[15]
  T/C: 108 % of control
[10]
  T/C: 91 % of control and 100 % of control
[16]
  T/C: 90 % of control and 108 % of control
[3]
  T/C: 100 % of control
dose: 400.0 mg/kg/injection, schedule: Q04DX003 (ip), vehicle: saline sonified
  T/C: 109 % of control and 108 % of control

## O=C1CN=C(c2ccccn2)c2cc(Cl)ccc2N1CCO
[4]
  T/C: 105 % of control
[5]
  T/C: 110 % of control
[6]
  T/C: 115 % of control

## O=C1CNC(=O)c2cc(N=Cc3cc(Br)ccc3O)ccc2N1
[2]
  T/C: 99 % of control
[13]
  T/C: 89 % of control
[14]
  T/C: 100 % of control

## CC(C)(C)[Si](OC(=O)N(CCCl)CCCl)(c1ccccc1)c1ccccc1
dose: 50.0 mg/kg/injection, schedule: Q01DX001 (ip), vehicle: saline with Tween-80
  T/C: 100 % of control
dose: 100.0 mg/kg/injection, schedule: Q01DX001 (ip), vehicle: saline with Tween-80
  T/C: 118 % of control and 124 % of control

## O=C(O)C1CC[N-]CC1.O=C(O)C1CC[N-]CC1.[Cl][Pt+2]([Cl])([Cl])[Cl]
dose: 3.12 mg/kg/injection, schedule: Q01DX009 (ip), vehicle: saline
  T/C: 109 % of control
[11]
  T/C: 90 % of control
[12]
  T/C: 94 % of control
dose: 50.0 mg/kg/injection, schedule: Q01DX009 (ip), vehicle: saline
  T/C: 100 % of control

## CN(C)C(=O)c1ccc(C(C)(C)C)cc1
dose: 12.5 mg/kg/injection, schedule: Q01DX009 (ip), vehicle: other
  T/C: 104 % of control
dose: 12.5 mg/kg/injection, schedule: Q04DX003 (ip), vehicle: other
  T/C: 106 % of control
dose: 25.0 mg/kg/injection, schedule: Q01DX009 (ip), vehicle: other
  T/C: 103 % of control
dose: 25.0 mg/kg/injection, schedule: Q04DX003 (ip), vehicle: other
  T/C: 121 % of control
dose: 50.0 mg/kg/injection, schedule: Q01DX009 (ip), vehicle: other
  T/C: 113 % of control
dose: 50.0 mg/kg/injection, schedule: Q04DX003 (ip), vehicle: other
  T/C: 97 % of control
dose: 100.0 mg/kg/injection, schedule: Q01DX009 (ip), vehicle: other
  T/C: 101 % of control
dose: 100.0 mg/kg/injection, schedule: Q04DX003 (ip), vehicle: other
  T/C: 106 % of control
dose: 200.0 mg/kg/injection, schedule: Q04DX003 (ip), vehicle: other
  T/C: 95 % of control

Source: PubChem BioAssay AID328 (DTP/NCI, 2004)
